Assay results taken from US10287255B2, “Compounds as histone deacetylase 6 inhibitors and pharmaceutical compositions comprising the same” (CHONG KUN DANG PHARMACEUTICAL CORP., priority 2014, dated 2019).

How the values were obtained:
human recombinant HDAC1 = biological target: T1, human recombinant HDAC1 (Homo sapiens, UniProt Q13547); experiment: HDAC1 enzyme activity inhibition assay (in vitro, fluorimetric); format: biochemical; details: human recombinant HDAC1, fluorimetric kit, 30° C. 60 minutes
T1 construct: purchased Enzo Life Science BML-SE456
T1 sequence (Q13547 whole entry): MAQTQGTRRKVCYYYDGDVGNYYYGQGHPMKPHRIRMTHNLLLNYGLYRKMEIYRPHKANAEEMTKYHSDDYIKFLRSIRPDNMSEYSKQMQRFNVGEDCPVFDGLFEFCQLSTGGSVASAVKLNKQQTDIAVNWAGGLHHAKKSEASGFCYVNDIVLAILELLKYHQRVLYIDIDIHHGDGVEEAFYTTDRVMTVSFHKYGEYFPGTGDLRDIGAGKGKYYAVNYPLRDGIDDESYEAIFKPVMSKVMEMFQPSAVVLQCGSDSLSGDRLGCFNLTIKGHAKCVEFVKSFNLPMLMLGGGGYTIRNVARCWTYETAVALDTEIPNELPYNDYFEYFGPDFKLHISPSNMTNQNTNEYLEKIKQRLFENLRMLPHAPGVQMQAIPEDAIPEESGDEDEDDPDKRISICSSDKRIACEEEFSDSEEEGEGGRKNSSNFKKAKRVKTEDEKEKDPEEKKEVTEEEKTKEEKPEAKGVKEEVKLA
Method: (§1) In order to examine the HDAC6 selectivity of the compounds of formula 1 of the present invention by HDAC1 and HDAC6 enzymatic activity inhibition assays, an experiment was performed using a conventional substance as a control.
(§2) HDAC enzyme activity was measured using a HDAC Fluorimetric Drug Discovery Kit (BML-AK511, 516, Enzo Life Science). For the HDAC1 enzyme activity test, human recombinant HDAC1 (BML-SE456) was used as an enzyme source, and Fluor de Lys®-“SIRT1 (BNL-KI177) was used as a substrate. A 5-fold dilution of the compound was seeded into a 96-well plate, and then 0.3 μg of the enzyme and 10 μM of the substrate were added to each well of the plate and allowed to react at 30° C. for 60 minutes. Then, Fluor de Lys® Developer II (BML-KI176) was added thereto and allowed to react for 30 minutes, after which the fluorescence value (Ex 360, Em 460) was measured using a multi-plate reader (Flexstation 3, Molecular Device). The HDAC6 enzyme was tested using human recombinant HDAC6 (382180) (Calbiochem) according to the same protocol as the HDAC1 enzyme activity test method. Based on the resulting values, each IC50 value was calculated using GraphPad Prism4.0 program.

human recombinant HDAC6 = biological target: T2, human recombinant HDAC6 (Homo sapiens, UniProt Q9UBN7); experiment: HDAC6 enzyme activity inhibition assay (in vitro, fluorimetric); format: biochemical; details: for HDAC6 selectivity (fold): HDAC6 selectivity over HDAC1; for IC50: human recombinant HDAC6, fluorimetric kit, same protocol as HDAC1
T2 construct: purchased Calbiochem 382180
T2 sequence (Q9UBN7 1-1215): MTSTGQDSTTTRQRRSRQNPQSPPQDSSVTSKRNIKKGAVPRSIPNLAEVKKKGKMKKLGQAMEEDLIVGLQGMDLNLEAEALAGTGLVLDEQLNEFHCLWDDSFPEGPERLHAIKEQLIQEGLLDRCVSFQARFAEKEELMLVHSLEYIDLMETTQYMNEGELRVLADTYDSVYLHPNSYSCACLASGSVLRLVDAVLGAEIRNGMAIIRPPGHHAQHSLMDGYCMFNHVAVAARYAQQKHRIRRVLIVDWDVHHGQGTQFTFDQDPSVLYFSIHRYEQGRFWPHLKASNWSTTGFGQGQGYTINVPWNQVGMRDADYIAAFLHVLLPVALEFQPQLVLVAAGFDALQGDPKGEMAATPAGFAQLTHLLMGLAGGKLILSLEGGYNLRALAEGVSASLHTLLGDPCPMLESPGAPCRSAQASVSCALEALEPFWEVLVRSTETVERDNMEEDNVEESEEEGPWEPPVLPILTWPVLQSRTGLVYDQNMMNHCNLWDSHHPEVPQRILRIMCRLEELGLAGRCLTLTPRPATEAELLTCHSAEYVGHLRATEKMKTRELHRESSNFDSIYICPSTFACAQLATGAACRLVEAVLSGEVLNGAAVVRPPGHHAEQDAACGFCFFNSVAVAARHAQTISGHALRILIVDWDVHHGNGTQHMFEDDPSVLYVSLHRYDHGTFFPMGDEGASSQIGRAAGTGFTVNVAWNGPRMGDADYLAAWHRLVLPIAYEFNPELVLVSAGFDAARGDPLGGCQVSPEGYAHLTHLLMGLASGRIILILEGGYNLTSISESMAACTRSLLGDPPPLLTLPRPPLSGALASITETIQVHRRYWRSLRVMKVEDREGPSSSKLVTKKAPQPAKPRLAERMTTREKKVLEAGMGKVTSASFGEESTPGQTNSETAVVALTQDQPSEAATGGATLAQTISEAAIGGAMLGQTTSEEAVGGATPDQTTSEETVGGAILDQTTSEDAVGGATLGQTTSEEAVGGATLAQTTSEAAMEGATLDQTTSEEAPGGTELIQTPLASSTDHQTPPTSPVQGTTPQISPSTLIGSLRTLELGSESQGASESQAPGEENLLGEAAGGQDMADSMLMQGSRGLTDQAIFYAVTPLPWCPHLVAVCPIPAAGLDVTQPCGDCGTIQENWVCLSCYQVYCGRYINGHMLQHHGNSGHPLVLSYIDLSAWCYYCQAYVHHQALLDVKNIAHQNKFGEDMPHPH
Method: as §1, §2

Row | IC50 (human recombinant HDAC1) | HDAC6 selectivity (fold) (human recombinant HDAC6) | IC50 (human recombinant HDAC6) | SMILES
1 | > 10000 nM | >65 fold | 154 nM | C[C@@H]1CN(C(=O)c2cccnc2)C[C@H](C)N1Cc1ccc(C(=O)NO)cc1 [Compound 112, 4-(((2S,6R)-2,6-dimethyl-4-nicotinoylpiperazin-1-yl)methyl)-N-hydroxybenzamide]
2 | 3200 nM | 18 fold | 181 nM | C[C@@H]1CN(C(=O)c2ccco2)C[C@H](C)N1Cc1ccc(C(=O)NO)cc1 [Compound 115, 4-(((2S,6R)-4-(furan-2-carbonyl)-2,6-dimethylpiperazin-1-yl)methyl)-N-hydroxybenzamide]
3 | 5500 nM | 48 fold | 113 nM | C[C@@H]1CN(Cc2ccccc2Cl)C[C@H](C)N1Cc1ccc(C(=O)NO)cc1 [Compound 118, 4-(((2S,6R)-4-(2-chlorobenzyl)-2,6-dimethylpiperazin-1-yl)methyl)-N-hydroxybenzamide]
4 | 8200 nM | 26 fold | 309 nM | C[C@@H]1CN(c2ccc(F)cc2)C[C@H](C)N1Cc1ccc(C(=O)NO)cc1 [Compound 119, 4-(((2S,6R)-4-(4-fluorophenyl)-2,6-dimethylpiperazin-1-yl)methyl)-N-hydroxybenzamide]
5 | 11800 nM | 407 fold | 29 nM | C[C@@H]1CN(Cc2ccc(C(=O)NO)cc2)C[C@H](C)N1C(=O)c1cccc(Cl)c1 [Compound 121, 4-(((3R,5S)-4-(3-chlorobenzoyl)-3,5-dimethylpiperazin-1-yl)methyl)-N-hydroxybenzamide]
6 | 15500 nM | 2584 fold | 6 nM | C[C@@H]1CN(Cc2ccc(C(=O)NO)cc2)C[C@H](C)N1C(=O)c1ccccn1 [Compound 123, 4-(((3R,5S)-3,5-dimethyl-4-picolinoylpiperazin-1-yl)methyl)-N-hydroxybenzamide]
7 | > 10000 nM | >3333 fold | 3 nM | C[C@@H]1CN(Cc2ccc(C(=O)NO)cc2)C[C@H](C)N1C(=O)c1ccco1 [Compound 125, 4-(((3R,5S)-4-(furan-2-carbonyl)-3,5-dimethylpiperazin-1-yl)methyl)-N-hydroxybenzamide]
8 | 6100 nM | 1525 fold | 4 nM | C[C@@H]1CN(Cc2ccc(C(=O)NO)cc2)C[C@H](C)N1C(=O)c1cccs1 [Compound 126, 4-(((3R,5S)-3,5-dimethyl-4-(thiophene-2-carbonyl)piperazin-1-yl)methyl)-N-hydroxybenzamide]
9 | 15400 nM | 132 fold | 117 nM | CCCN1[C@H](C)CN(Cc2ccc(C(=O)NO)cc2)C[C@@H]1C [Compound 148, 4-(((3R,5S)-3,5-dimethyl-4-propylpiperazin-1-yl)methyl)-N-hydroxybenzamide]
10 | 8400 nM | 44 fold | 193 nM | C[C@@H]1CN(CCCCCC(=O)NO)C[C@H](C)N1Cc1ccccc1 [Compound 154, 6-((3R,5S)-4-benzyl-3,5-dimethylpiperazin-1-yl)-N-hydroxyhexanamide]
11 | 2900 nM | 182 fold | 16 nM | C[C@@H]1CN(Cc2ccc(C(=O)NO)cc2)C[C@H](C)N1C(=O)NCc1ccccc1 [Compound 161, (2S,6R)-N-benzyl-4-(4-(hydroxycarbamoyl)benzyl)-2,6-dimethylpiperazine-1-carboxamide]

Second part, the compound before the results:

Row | SMILES | IC50 (human recombinant HDAC1) | HDAC6 selectivity (fold) (human recombinant HDAC6) | IC50 (human recombinant HDAC6)
12 | C[C@@H]1CN(S(=O)(=O)c2cccnc2)C[C@H](C)N1Cc1ccc(C(=O)NO)cc1 [Compound 113, 4-(((2S,6R)-2,6-dimethyl-4-(pyridin-3-ylsulfonyl)piperazin-1-yl)methyl)-N-hydroxybenzamide] | 2800 nM | 27 fold | 104 nM
13 | C[C@@H]1CN(C(=O)c2cccs2)C[C@H](C)N1Cc1ccc(C(=O)NO)cc1 [Compound 114, 4-(((2S,6R)-2,6-dimethyl-4-(thiophene-2-carbonyl)piperazin-1-yl)methyl)-N-hydroxybenzamide] | 2400 nM | 13 fold | 185 nM
14 | C[C@@H]1CN(Cc2ccc(C(=O)NO)cc2)C[C@H](C)N1C(=O)c1ccccc1Cl [Compound 120, 4-(((3R,5S)-4-(2-chlorobenzoyl)-3,5-dimethylpiperazin-1-yl)methyl)-N-hydroxybenzamide] | 5500 nM | 304 fold | 18 nM
15 | C[C@@H]1CN(Cc2ccc(C(=O)NO)cc2)C[C@H](C)N1C(=O)c1ccc(Cl)cc1 [Compound 122, 4-(((3R,5S)-4-(4-chlorobenzoyl)-3,5-dimethylpiperazin-1-yl)methyl)-N-hydroxybenzamide] | 3600 nM | 717 fold | 5 nM
16 | C[C@@H]1CN(Cc2ccc(C(=O)NO)cc2)C[C@H](C)N1Cc1ccccc1Cl [Compound 127, 4-(((3R,5S)-4-(2-chlorobenzyl)-3,5-dimethylpiperazin-1-yl)methyl)-N-hydroxybenzamide] | > 10000 nM | >909 fold | 11 nM
17 | C[C@@H]1CN(Cc2ccc(C(=O)NO)cc2)C[C@H](C)N1Cc1cccc(Cl)c1 [Compound 128, 4-(((3R,5S)-4-(3-chlorobenzyl)-3,5-dimethylpiperazin-1-yl)methyl)-N-hydroxybenzamide] | 11100 nM | 5540 fold | 2 nM
18 | C[C@@H]1CN(Cc2ccc(C(=O)NO)cc2)C[C@H](C)N1Cc1ccco1 [Compound 145, 4-(((3R,5S)-4-(furan-2-ylmethyl)-3,5-dimethylpiperazin-1-yl)methyl)-N-hydroxybenzamide] | 17100 nM | 519 fold | 33 nM
19 | C[C@@H]1CN(Cc2ccc(C(=O)NO)cc2)C[C@H](C)N1C(=O)Cc1ccccc1 [Compound 146, 4-(((3R,5S)-3,5-dimethyl-4-(2-phenylacetyl)piperazin-1-yl)methyl)-N-hydroxybenzamide] | 6000 nM | 314 fold | 19 nM
20 | CCN1[C@H](C)CN(Cc2ccc(C(=O)NO)cc2)C[C@@H]1C [Compound 147, 4-(((3R,5S)-4-ethyl-3,5-dimethylpiperazin-1-yl)methyl)-N-hydroxybenzamide] | > 10000 nM | >90 fold | 111 nM
21 | C[C@@H]1CN(Cc2ccc(C(=O)NO)cc2)C[C@H](C)N1CC(F)(F)F [Compound 149, 4-(((3R,5S)-3,5-dimethyl-4-(2,2,2-trifluoroethyl)piperazin-1-yl)methyl)-N-hydroxybenzamide] | > 10000 nM | >125 fold | 80 nM
22 | C[C@@H]1CN(Cc2ccc(C(=O)NO)cc2)C[C@H](C)N1C(=O)Nc1ccccc1 [Compound 159, (2S,6R)-4-(4-(hydroxycarbamoyl)benzyl)-2,6-dimethyl-N-phenylpiperazine-1-carboxamide] | 3600 nM | 109 fold | 33 nM
23 | Cc1ccccc1NC(=O)N1[C@H](C)CN(Cc2ccc(C(=O)NO)cc2)C[C@@H]1C [Compound 160, (2S,6R)-4-(4-(hydroxycarbamoyl)benzyl)-2,6-dimethyl-N-o-tolylpiperazine-1-carboxamide] | 8800 nM | 177 fold | 50 nM
